According to patent US11360104B2, “Microbial-based biosensors” (TRUSTEES OF BOSTON UNIVERSITY, priority 2017, dated 2022):
Read-outs that look alike come from different tables or passages of the source.

Tests used:
[1] = test system: steroid responsive genome island (SRGI); test: Whole transcriptome RNA-Seq of steroid treated P. simplex; type: cell-based, Pimelobacter simplex; details: P. simplex exposed to steroid vs solvent control, Log2 fold change
From the text: (§1) In order to identify steroid binding Transcription Factors, a whole transcriptome RNA sequencing (RNA-Seq) screen was developed (FIG. 7). The growth of Pimelobacter simplex bacteria was profiled with respect to the starting inoculation density, solvent toxicity, and the addition of steroids (FIG. 16). […] P. simplex bacteria were screened against the steroid solvents ethanol (EtOH) and dimethyl sulfoxide (DMSO). […] Steroid growth curves were similarly performed using a starting OD of 0.005 and constant solvent dosing with titrations of steroids. […] P. simplex bacteria were grown in the presence of 700 μM testosterone, 21.88 μM progesterone, 87.50 μM estrone, 21.88 μM 17β-estradiol, 21.88 μM hydrocortisone, or 175.00 μM aldosterone concentrations were selected for comparison.
Using accession gene tags, genes were annotated for steroid relevant enzymes or transcription factors. […] Allosteric TF binding sequences are often palindromes and typically located near the start of its gene location in an intergenic space. With such a design, the allosteric TF can regulate itself or the open reading frame (ORF) near it in response to its effector molecule. […] Once identified, the TFs were cloned and recombinantly expressed for thorough characterization.
Cells were grown in 6 mL volumes of media at the OD, solvent, and steroid concentrations found from the growth curves in 14 mL polypropylene round-bottom tubes (Corning #352059) in technical duplicate. The same controls as in the steroid exposure growth curve were used for setting up RNA extraction samples. The cells were incubated at their corresponding temperature with continuous orbital shaking at 150 rpm until the end of lag-phase, mid-log phase, or stationary phase from the start of inoculation. Afterward, samples were removed and a 1:1 ratio of RNAprotect Bacteria Reagent (Qiagen #76506) was added followed by spinning down at 4° C. for 10 minutes at 4000 g. Supernatant was removed and the pellet re-suspended in 300 μL of RNAprotect and transferred into 2.0 mL Safe-Lock Tubes (Eppendorf #3101). The samples were then spun down once again at 4° C. for 10 minutes at 10000 g. Once the supernatant has been removed the samples were placed on ice and ready for RNA extraction. RNA extraction was done by Qiacube (Qiagen #9001292) set to the RNeasy Protect Bacteria Mini Kit protocol of bacterial cell pellet with enzymatic lysis. Tube A was prepared as described except with the addition of 150 mg/mL lysozyme (Sigma-Aldrich #L6876) and 20 mg/mL proteinase K (Roche #03115879001) all diluted in 1xTE buffer. RNA samples were subsequently quantified using Qubit RNA HS Assay Kit (Thermo Fisher Scientific #Q32852) and analyzed using a RNA 6000 Pico Kit (Agilent 5067-1513) in a 2100 Bioanalyzer (Agilent G2939A). RNA samples were either immediately used for RNA-Seq library preparation or stored long-term at −80° C.
RNA-Seq libraries were then produced from these samples using a slightly modified ScriptSeq v2 RNA-Seq Library Preparation Kit (Illumina 455A/22124) ensuring use of unique index primers through ScriptSeq Index PCR Primers (Sets 1-4) 48 rxns/set (Illumina #SSIP1234).

[2] = test system: Pimelobacter simplex; test: Solvent and steroid exposure growth curves; details: P. simplex, starting OD 0.005, constant solvent
From the text: as §1
In order to properly determine the doubling time of the strain, growth curves were performed. All growth curves were done in 100 μL per well volumes in 96 well flat clear bottom black polystyrene TC-treated microplates which were individually wrapped with a lid and sterile (Corning #3603). Measurements were done by an Infinite M200 Pro (TECAN) spectrophotometer at the temperature suited for P. simplex. Readings were performed over 96 cycles of 15 minutes each at 600 nm absorbance with 25 flashes in a 3×3 (XY-Line) type reads per well. In between reads there was orbital shaking at 150 rpm frequency for a total of 10 minutes. In order to characterize the growth alone, a ½ serial dilution of 9 concentrations from 0.5-0.0020 OD600 nm were prepared in the respective media. Then each concentration was measured as previously described using a microplate reader (TECAN) and normalized against a media background control in technical triplicate. Afterward, an appropriate starting concentration of cells was chosen with a substantially long lag-phase, linear log phase, and a plateau of stationary-phase.
Once an appropriate starting cell concentration was chosen, a secondary growth curve was performed to test the toxicity levels of the solvents used to dissolve steroids of interest. Since the steroids used are heavily hydrophobic, they often need to be dissolved in organic solvents such as DMSO or ethanol which are toxic to bacteria at high concentrations. P. simplex was incubated under microplate reader conditions previously mentioned at a starting OD determined by the first growth curve with DMSO, ethanol, or H2O at ½ serial dilutions for a total of eight concentrations (50-0.39%) tested in technical triplicate. Two controls were included per solvent; a positive control without solvent and a media control which allowed for appropriate normalization. Solvent exposure growth curves allowed for choosing the maximum amount of solvent concentration that strains would sustain while maintaining relative viability in order to determine a range of steroid concentrations which could be used.
A tertiary growth curve was performed to test the toxicity levels of steroid specific to P. simplex. The strain was incubated under microplate reader conditions previously mentioned at a starting OD determined by the first growth curve and the highest solvent concentration corresponding to the steroid of interest with steroid at ½ serial dilutions for a total of seven concentrations tested in singlet. Testosterone, progesterone, 17β-estradiol, hydrocortisone, and aldosterone were all dissolved in ethanol while estrone was dissolved in DMSO. Three controls were included for each steroid; a positive control with the highest tolerable solvent concentration (%), a positive control with media, and a media control which allowed for normalization. Steroid exposure growth curves allowed for choosing the maximum amount of steroid concentration that P. simplex would sustain while maintaining relative viability.

[3] = molecular target: PinR (Nocardioides simplex (Pimelobacter simplex), UniProt A0A0A1DUF2); test: Cross-reactivity test with estradiol, 1:4:6 QD:TF:oligo sensor; type: biochemical; details: FIG. 44E
Sequence of PinR (A0A0A1DUF2 entry or part of it): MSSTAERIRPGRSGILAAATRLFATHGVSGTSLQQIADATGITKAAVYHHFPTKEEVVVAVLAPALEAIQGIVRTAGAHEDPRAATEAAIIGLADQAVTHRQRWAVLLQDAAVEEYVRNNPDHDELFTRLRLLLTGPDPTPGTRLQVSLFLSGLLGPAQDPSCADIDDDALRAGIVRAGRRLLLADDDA
From the text: FIGS. 44A-44E show a schematic of the biosensor and emission plots. […] These two graphs show the difference between our sensor (blue) and negative control (orange). The lowest number of acceptor molecules with the largest difference between the signal and noise (difference between blue and orange) is the concentration ratio that we want to work with moving forward. The sensor tested moving forward comprised a 1:4:6 ratio of QD:TF:oligo-dye. Fda=Donor emission intensity in the presence of acceptor; Fd=Donor emission intensity in the absence of acceptor; Relative Donor Emission=Fda/Fd; FRET efficiency=1−Fda/Fd; Fa=Acceptor emission intensity in the presence of the donor; [QD]=50 nM; Oligo-Cy5:QD=0-48. […] When the TF is bound to the QD and the oligo is bound to the TF, which is more likely in the absence of the analyte (red line), the donor emission intensity is decreased and the acceptor emission intensity is increased (energy transfer from the QD to the dye on the oligo). The presence of the analyte decreases the affinity of the TF for the oligo, so binding is less likely; as a result, the donor emission intensity is increased and the acceptor emission intensity decreased. […] This same sensor was tested with estradiol (estrogen) as well to test for cross-reactivity. […]

[4] = test system: TetR variant TetRc, tdTomato fusion (tetR-tdTomato); test: FRET sensor 1 (tdTomato-TetRc + Cy5-DNA) titrated with aTc; aTc-induced TF-DNA unbinding; type: biochemical
From the text: (§2) The TetO cognate sequence comprises a 19 bp binding region. The 19 bp cognate sequence was flanked by 4-5 bp on each side to ensure binding, resulting in a 28 bp DNA oligo. One of the strands was labeled with the FRET acceptor Cy5 on both the 5′ and 3′ ends. A second 28 bp sequence with no affinity for TetR was similarly labeled to act as the negative control (Table 4).
(§3) Each sensor consists of Cy5-modified DNA acting as the FRET acceptor with either a fluorescent protein-transcription factor (FP-TF) fusion protein (expressed in E. coli) or quantum dot-transcription factor (QD-TF) conjugate as the donor.
(§4) A TF to DNA ratio was chosen for each sensor (1:3 for Sensor 1, 1:4.5 for Sensors 2 and 3) and kept constant for subsequent experiments testing sensor sensitivity to aTc.
(§5) To compare the three sensors, the sensor outputs were fit to a modified Hill equation written as:
(§6) [formula] where S0 is the intensity of the sensor signal with no analyte present, S1 is the intensity of the sensor signal at saturating analyte concentration, c is the analyte concentration, EC50 is the concentration at which there is 50% signal (aka the effective concentration, or EC50), and h is the Hill coefficient, which indicates cooperative binding. For visual comparison, the sensor outputs were normalized and plotted together (FIGS. 4A and B).

[5] = test system: TetR variant TetRd (TetR-6His, on QD2); test: FRET sensor 3 (QD2-TetRd + Cy5-DNA) titrated with aTc; aTc-induced TF-DNA unbinding; type: biochemical
From the text: as §2, §3, §4, §5, §6
(§7) For Sensors 2 and 3, QDs and tetR-6His were mixed at a 1:4 ratio with a final QD concentration of 50 nM for self-assembly of the tetR-6His to the surface of the QDs^21.

[6] = test system: TetR variant TetRc (TetR-6His, on QD1); test: FRET sensor 2 (QD1-TetRc + Cy5-DNA) titrated with aTc; aTc-induced TF-DNA unbinding; type: biochemical
From the text: as §2, §3, §4, §5, §6, §7

SMILES	upregulation of genes inside the SRGI [1]	highest steroid concentration exhibiting normal growth profile [2]	impact of concentration on the sensor binding/unbinding (Fa/Fd) [3]	h (Hill coefficient) ([4]; aTc, sensor 1)	EC50 ([4]; aTc, sensor 1, tdTomato:TF:DNA 1:1:3, Table 6 fit, read-out: EC50)	EC50 ([4]; sensor 1, legend of FIG. 4, read-out: c50 (analyte concentration that yields 50% signal, EC50))	h (Hill coefficient) ([5]; aTc, sensor 3)	EC50 ([5]; aTc, sensor 3, QD:TF:DNA 1:4:18, Table 6 fit, read-out: EC50)	EC50 ([5]; sensor 3, legend of FIG. 4, read-out: c50 (analyte concentration that yields 50% signal, EC50))	h (Hill coefficient) ([6]; aTc, sensor 2)	EC50 ([6]; aTc, sensor 2, QD:TF:DNA 1:4:18, Table 6 fit, read-out: EC50)	EC50 ([6]; sensor 2, legend of FIG. 4, read-out: c50 (analyte concentration that yields 50% signal, EC50))
C[C@]12CC[C@@H]3c4ccc(O)cc4CC[C@H]3[C@@H]1CC[C@@H]2O [17β-estradiol, 17β-Estradiol]	not	21.88 µM	no impact	–	–	–	–	–	–	–	–	–
Cc1c2c(c(O)c3c(O)cccc13)C(=O)[C@]1(O)C(=O)C(C(N)=O)=C(O)[C@@H](N(C)C)[C@@H]1C2 [aTc, anhydrotetracycline]	–	–	–	1.57 ± 0.0802	218 ± 9.18 nM	205 nM	2.14 ± 0.185	133 ± 6.15 nM	117 nM	2.37 ± 0.191	699 ± 26.4 nM	682 nM
